From patent US11965100B2, “Aggregation-induced emission luminogens useful for cancer cell discrimination and monitoring” (The Hong Kong University of Science and Technology, priority 2020, dated 2024) come the findings set out here.

Series [1] deals with cancer cells (A549 and HeLa) co-cultured with normal cells (COS7 and HLF). The experiment in a line: CLSM imaging of cancer cells co-cultured with normal cells. The series is classed as cell-based. The conditions noted are these: A549 co-cultured with COS7, 2 μM, 30 min. The method, then: (§1) FIG. 5 CLSM images of live cancer cells (A549 and HeLa) co-cultured with normal cells (COS7 and HLF) (A), and the images of A549 and HLF cells seeded on different cover glasses (Scale bar=20 μm) (B) stained with 2 μM IVP-02 for 30 min (Scale bar=50 μm), respectively. λex=488 nm, λem=500-650 nm.
(§2) FIG. 10 CLSM images of live cancer cells (A549) co-cultured with normal cells (COS7) (A), and the images of A549 and HLF cells seeded on different cover glasses Scale bar=20 μm (B) stained with 2 μM IVP-02, 04, 06, 22, 42, and 62 for 30 min Scale bar=50 μm, respectively. (The first column in B is the same as FIG. 3B) λex=488 nm, λem=500-650 nm.
FIG. 11 CLSM images of live cancer cells (HeLa) co-cultured with normal cells (COS7), stained with 2 μM IVP-02, 04, 06, 22, 42, and 62 for 30 min, respectively. λex=488 nm, λem=500-650 nm. Scale bar=20 μm.
FIG. 12 CLSM images of live cancer cells (A549) co-cultured with normal cells (HLF), stained with 2 μM IVP-02, 04, 06, 22, 42, and 62 for 30 min, respectively. λex=488 nm, λem=500-650 nm. Scale bar=20 μm.
(§3) The bioimaging properties of IVP-02 in live cells were investigated by confocal laser scanning microscopy (CLSM). Cancer cells (A549 and HeLa) and normal cells (COS7 and HLF) were stained with IVP-02, respectively. […] So IVP-02 holds the high potential to differentiate cancer and normal cells. To verify this speculation, cancer and normal cells were co-cultured and stained with IVP-02. […] To precisely confirm the selectivity of IVP-02 to cancer cells, cancer cells A549 and normal cells HLF (A549 and HLF are both human lung cells) were seeded on different cover glasses, respectively. Then the two cover glasses were put in the same dish and stained with IVP-02 at the same time.
(§4) Cancer cells A549 co-cultured with normal cells COS7 were stained with these molecules, respectively. […] Then HeLa cells co-cultured with COS7 cells (FIG. 11), and A549 cells co-cultured with HLF cells (FIG. 12) were also stained with these molecules, the results were similar with that in A549 cells co-cultured with COS7 cells. In addition to co-culturing, A549 cells and HLF cells were also seeded on different cover glasses and stained with these molecules. […] Based on the imaging results above, it can be concluded that the selectivity of these IVP molecules to cancer cells is also based on the length of alkyl chain at pyridinium salt side. Lengthening the alkyl chain at the pyridinium salt side will eliminate the selectivity to cancer cells.

Series [2] concerns mitochondria in HeLa and A549 cells. The experiment in a line: Co-stain with mitochondrial probe MitoTracker Deep Red FM (MTDR). To be noted: A549 and HeLa, 2 μM dye, co-stain 0.2 μM MTDR. The series is classed as cell-based. As for the experimental part: FIG. 6 CLSM images of live HeLa and A549 cells stained with 2 μM IVP-02 and 0.2 μM MTDR, respectively. IVP-02: λex=488 nm, λem=500-650 nm; MTDR: λex=640 nm, λem=650-700 nm. Scale bar=20 μm.
In the above pictures, filamentous structures in cytoplasm of cancer cells were observed, which were typical morphology of mitochondria. Then co-stain experiments with commercial mitochondrial probe MitoTracker™ Deep Red FM (MTDR) were carried out (FIG. 6).
It was speculated that the membrane permeability of the probe was a key factor for its selectivity to cancer cells, since the plasma membrane of cancer cells was reported to be more permeable than normal cells. Consequently, IVP-02 was modified by lengthening the alkyl chain at the pyridine salt side and indole side, respectively, to tune the membrane permeability. The synthetic route to these new IVP molecules is depicted in Scheme 1. Their chemical structures were fully characterized by ^1H NMR, ^13C NMR, and ^19F NMR. Then cancer cells A549 were stained with the five new molecules, respectively. […] The co-stain experiments with MTDR also confirmed their location in mitochondria in A549 cells in FIG. 7C. In addition to A549 cells, the same experiments were also carried in HeLa cells (FIGS. 8 and 9).

In series [3] the test system is A549 cells. As to the kind of experiment: Mitochondrion-nucleolus migration on CCCP treatment, A549 cells. The series is classed as cell-based, human. To be noted: for migration back to mitochondria after removal of CCCP: A549, CCCP removed, fresh medium 5 min; for migration from mitochondria to nucleolus after addition of CCCP: A549, pre-stained 2 μM 30 min, 20 μM CCCP 5 min. As for the experimental part: FIG. 15 Live A549 cells (A) and live A549 co-cultured with COS 7 cells, live HeLa co-cultured with COS7 cells (B) were pre-stained with 2 μM IVP-02 for 30 min, and treated with 20 μM CCCP for 5 min. Then CCCP was removed away and fresh culture medium was added for another 5 min. λex=488 nm, λem=500-650 nm. Scale bar=20 μm.
FIG. 18 Live A549 cells were pre-stained with 2 μM IVP-04, 22, 42, 06, 62 for 30 min, and treated with 20 μM CCCP for 5 min. Then CCCP was removed away and fresh culture medium was added for another 5 min, respectively. λex=488 nm, λem=500-650 nm. Scale bar=20 μm.
(§5) Monitoring cell viability is a highly valuable task for the fundamental researches in biology, pathology, and medicine. Then we investigated whether IVP-02 could monitor cell viability. Δψm is a very important indicator to characterize cell viability. With the loss of cell viability, Δψm would decrease, while with the recovery of cell viability, Δψm would also recover to the normal level. […] Carbonyl cyanide m-chlorophenyl hydrazone (CCCP) is a type of protonophore and can cause rapid acidification of mitochondria by collapsing Δψm. Cancer cells A549 were pre-stained with IVP-02 for 30 min. In FIG. 15A, in the beginning, IVP-02 stained mitochondria clearly. […] Hydrogen peroxide (H2O2) can inhibit the oxidation respiratory chain that would cause the loss of cell viability. Then live A549 and HeLa cells were pre-stained with IVP-02, and treated with 10 mM H2O2.
(§6) In addition to IVP-02, we further investigated whether other IVP molecules could monitor the viability of cancer cells through mitochondrion-nucleolus migration was investigated. A549 cells were pre-stained with IVP-04, 22, 42, 06, and 62, respectively, and then CCCP was added.

In series [4] the test system is HeLa cells. The experiment in a line: Mitochondrion-nucleolus migration on CCCP treatment, HeLa cells. The conditions noted are these: pre-stained 2 μM 30 min, 20 μM CCCP 5 min. The format is cell-based. The method, then: FIG. 16 Live HeLa cells were pre-stained with 2 μM IVP-02 for 30 min, and treated with 20 μM CCCP for 5 min. Then CCCP was removed away and fresh culture medium was added for another 5 min. λex=488 nm, λem=500-650 nm. Scale bar=20 μm.
FIG. 19 Live HeLa cells were pre-stained with 2 μM IVP-04, 22, 42, 06, 62 for 30 min, and treated with 20 μM CCCP for 5 min. Then CCCP was removed away and fresh culture medium was added for another 5 min, respectively. λex=488 nm, λem=500-650 nm. Scale bar=20 μm.
as §5, §6

Series [5] relates to RNA. As to the kind of experiment: RNA fluorescence titration, Scatchard equation. The series is classed as binding. To be noted: comparison in words. The text has this:
FIG. 20 (A) Fluorescence titration (left) of IVP-02 with RNA and the fitted curve (right) according to Scatchard equation. (B) The binding mode of IVP-02 to RNA. (C) Binding constant (k) and binding energy (E) of IVP molecules to RNA.
FIG. 21 Fluorescence titration (left) of IVP-04, 22, 42, 06, and 62 with RNA and the fitted curve (middle) according to Scatchard equation, and the binding mode (right) of them to RNA.
Why IVP-06 and 62 cannot stain the nucleolus in cancer cells to a significant extent? On one hand, when IVP molecules located in mitochondria, in addition to the electrostatic interaction between the cation and inner membrane negative charge of mitochondria, the hydrophobic interaction between alkyl chain and phospholipids also existed. When Δψm decreased, although the electrostatic interaction weakened, the hydrophobic interaction still remained. IVP-06 and 62 have longer alkyl chain than the other four IVP molecules, so the hydrophobic interaction between IVP-06 and 62 and phospholipids is stronger than that of the other four IVP molecules. […] In FIGS. 20A and 21, with the increase of RNA concentration, the fluorescence intensity of all the molecules increases. […] In FIG. 20B and FIG. 21, IVP molecules bound to the minor grooves of RNA, and the binding energy (E) was calculated and summarized in FIG. 20C.

Series [6] in a line: Quantum yield in the solid state. The series is classed as physicochemical. The text has this:
IVPI-2 is able to stain mitochondria in healthy live cancer cells. However, when Δψm decreases, IVPI-2 migrates into nucleolus. Since IVPI-2 is target-changeable according to the change of mitochondrial physiology, the chemical structure of IVPI-2 was modified in order to enhance the mitochondria to nucleolus migration. Iodide ion is a well-known effective fluorescent quencher due to its heavy-atom effect. The quantum yield of IVP-02 in the solid state is 4.3%, which is about 3 times than that of IVPI-02 (1.3%). An Exemplary synthetic route to certain embodiments of the compounds described herein is depicted in Scheme 1.

Series [7] relates to A549 and HLF cells. The experiment in a line: CLSM imaging of A549 and HLF cells seeded on different cover glasses in the same dish. The series is classed as cell-based, human. To be noted: 2 μM, 30 min. As for the experimental part:
as §1, §2, §3, §4

Consider `CCn1cc(/C=C/c2cc[n+](CC)cc2)c2ccccc21` [IVP-22], for which the “staining of co-cultured cancer and normal cells” value in series [1] was “only stain A549 cells”. In addition, the “mitochondrial staining in cancer cells” value in series [2] was “can selectively stain mitochondria in cancer cells”. Also, in series [3], the “migration back to mitochondria after removal of CCCP” value (“migration back to mitochondria” for short) was “could migrate back in mitochondria”; the “migration from mitochondria to nucleolus after addition of CCCP” value (shortened to “migration from mitochondria to nucleolus”) was “could enter nucleus and stain nucleolus”. Also, the “nucleolus staining after addition of CCCP” value (“nucleolus staining” below) in series [4] is given as “could stain nucleolus”.
`CCCCCCn1cc(/C=C/c2cc[n+](CC)cc2)c2ccccc21` [IVP-62]: in series [1], the “staining of co-cultured cancer and normal cells” value is “only stain A549 cells”. For the same molecule, the “mitochondrial staining in cancer cells” value in series [2] is “can selectively stain mitochondria in cancer cells”. The “migration from mitochondria to nucleolus” value in series [3] is given as “did not enter the nuclear to a substantial degree”. Besides, the “nucleolus staining” value in series [4] is given as “cannot”. Further, in series [5], the “binding constant (k) to RNA” value was “lower than that of IVP-02, 04, 22, and 42”.
As for `CC[n+]1ccc(/C=C/c2c[nH]c3ccccc23)cc1.[I-]` [IVPI-02, reference compound], the quantum yield in series [6] came out at 1.3%.
Take `CCCCCC[n+]1ccc(/C=C/c2c[nH]c3ccccc23)cc1` [IVP-06]: the “staining of co-cultured cancer and normal cells” value in series [1] is “can stain both A549 and COS7 cells”. Further, the “staining of A549 and HLF cells on different cover glasses” value in series [7] is “could stain both A549 and HLF cells”. Further, in series [2], the “mitochondrial staining in cancer cells” value was “can selectively stain mitochondria in cancer cells”. For the same molecule, in series [3], the “migration from mitochondria to nucleolus” value is “did not enter the nuclear to a substantial degree”. Also, the “nucleolus staining” value in series [4] is “cannot”. Besides, the “binding constant (k) to RNA” value in series [5] was “lower than that of IVP-02, 04, 22, and 42”.
On to `CCCCn1cc(/C=C/c2cc[n+](CC)cc2)c2ccccc21` [IVP-42], for which the “staining of co-cultured cancer and normal cells” value in series [1] is on record as “only stain A549 cells”. The “mitochondrial staining in cancer cells” value in series [2] is listed as “can selectively stain mitochondria in cancer cells”. In addition, in series [3], the “migration back to mitochondria” value was “could migrate back in mitochondria”; the “migration from mitochondria to nucleolus” value was “could enter nucleus and stain nucleolus”. For the same molecule, the “nucleolus staining” value in series [4] is “could stain nucleolus”.
Turning to `CCCC[n+]1ccc(/C=C/c2c[nH]c3ccccc23)cc1` [IVP-04], the “staining of co-cultured cancer and normal cells” value in series [1] is “can stain both A549 and COS7 cells”. The “staining of A549 and HLF cells on different cover glasses” value in series [7] was “could stain both A549 and HLF cells”. Moreover, in series [2], the “mitochondrial staining in cancer cells” value is “can selectively stain mitochondria in cancer cells”. In series [3], the “migration back to mitochondria” value is listed as “could migrate back in mitochondria”; the “migration from mitochondria to nucleolus” value is “could enter nucleus and stain nucleolus”. The “nucleolus staining” value in series [4] is given as “could stain nucleolus”.
